The EC50 is the concentration giving half of the maximal effect.

For the assay, the system named is SARS-CoV-2 replicon. The assay is classed as cell-based. Particulars: read-out: SARS-CoV-2 Replicon (Huh-7cell) EC50. Background: A replicon is a self-replicating genome or part of one, used to study replication in cells.
On to `CCC(=O)O[C@H]1[C@@H](OC(=O)CC)[C@](C#N)(c2ccc3c(N)ncnn23)O[C@@H]1CO[P@](=O)(N[C@@H](C)C(=O)OC(C)C)OCOC(=O)OC(C)C` [Compound 2a, (2R,3R,4R,5R)-2-(4-aminopyrrolo[2,1-f][1,2,4]triazin-7-yl)-2-cyano-5-((((R)-(((S)-1-isopropoxy-1-oxopropan-2-yl)amino)(((isopropoxycarbonyl)oxy)methoxy)phosphoryl)oxy)methyl)tetrahydrofuran-3,4-diyl dipropionate], for which the concentration giving a half-maximal response (EC50) lay within 0.005 to 0.01 µM.
In the case of `CCC(CC)COC(=O)[C@H](C)N[P@](=O)(OCOC(=O)C(C)(C)C)OC[C@H]1O[C@@](C#N)(c2ccc3c(N)ncnn23)[C@H](OC(=O)C(C)(C)C)[C@@H]1OC(=O)C(C)(C)C` [Compound 12a, (2R,3R,4R,5R)-2-(4-aminopyrrolo[2,1-f][1,2,4]triazin-7-yl)-2-cyano-5-((((R)-(((S)-1-(2-ethylbutoxy)-1-oxopropan-2-yl)amino)((pivaloyloxy)methoxy)phosphoryl)oxy)methyl)tetrahydrofuran-3,4-diyl bis(2,2-dimethylpropionate)], the EC50 lay within 0.05 to 0.5 µM.
Then `CCC(CC)COC(=O)[C@H](C)N[P@](=O)(OCOC(=O)C(C)(C)C)OC[C@H]1O[C@@](C#N)(c2ccc3c(N)ncnn23)[C@H](OC(=O)C(C)C)[C@@H]1OC(=O)C(C)C` [Compound 11a, (2R,3R,4R,5R)-2-(4-aminopyrrolo[2,1-f][1,2,4]triazin-7-yl)-2-cyano-5-((((R)-(((S)-1-(2-ethylbutoxy)-1-oxopropan-2-yl)amino)((pivaloyloxy)methoxy)phosphoryl)oxy)methyl)tetrahydrofuran-3,4-diyl bis(2-methylpropionate)], with 0.01 to 0.05 µM; and `CC(C)OC(=O)OCO[P@](=O)(OC[C@H]1O[C@@](C#N)(c2ccc3c(N)ncnn23)[C@H](OC(=O)C(C)C)[C@@H]1OC(=O)C(C)C)Oc1ccc(C(C)(C)C)cc1` [Compound 24b], with 0.01 to 0.05 µM.
For `CC(=O)O[C@H]1[C@@H](OC(C)=O)[C@](C#N)(c2ccc3c(N)ncnn23)O[C@@H]1CO[P@@](=O)(OCOC(=O)OC(C)C)Oc1ccc(C(C)(C)C)cc1` [Compound 22b, ((2R,3R,4R,5R)-2-(4-aminopyrrolo[2,1-f][1,2,4]triazin-7-yl)-5-((((R)-(4-tert-butylphenoxy)(((isopropoxycarbonyl)oxy)methoxy)phosphoryl)oxy)methyl)-2-cyanotetrahydrofuran-3,4-diyl diacetate], the EC50 was 0.005 to 0.01 µM.
With `CC(C)C(=O)O[C@H]1[C@@H](OC(=O)C(C)C)[C@](C#N)(c2ccc3c(N)ncnn23)O[C@@H]1CO[P@](=O)(N[C@@H](Cc1ccccc1)C(=O)OC1CCC1)Oc1ccccc1` [Compound 63a], the concentration giving a half-maximal response (EC50) fell in the range of 0.01 to 0.05 µM.
On to `CCC(CC)COC(=O)C1(N[P@](=O)(OCOC(=O)OC(C)C)OC[C@H]2O[C@@](C#N)(c3ccc4c(N)ncnn34)[C@H](OC(=O)C(C)C)[C@@H]2OC(=O)C(C)C)CCC1` [Compound 32a, (2R,3R,4R,5R)-2-(4-aminopyrrolo[2,1-f][1,2,4]triazin-7-yl)-2-cyano-5-((((R)-((1-((2-ethylbutoxy)carbonyl)cyclobutyl)amino)(((isopropoxycarbonyl)oxy)methoxy)phosphoryl)oxy)methyl)tetrahydrofuran-3,4-diyl bis(2-methylpropionate)], for which the EC50 lay within 0.01 to 0.05 µM.
Turning to `CCC(CC)COC(=O)[C@H](C)N[P@@](=O)(OCc1ccccc1C)OC[C@H]1O[C@@](C#N)(c2ccc3c(N)ncnn23)[C@H](OC(=O)C(C)C)[C@@H]1OC(=O)C(C)C` [Compound 16b, (2R,3R,4R,5R)-2-(4-aminopyrrolo[2,1-f][1,2,4]triazin-7-yl)-2-cyano-5-((((R)-(((S)-1-(2-ethylbutoxy)-1-oxopropan-2-yl)amino)((2-methylbenzyl)oxy)phosphoryl)oxy)methyl)tetrahydrofuran-3,4-diyl bis(2-methylpropionate)], the EC50 is 0.05 to 0.5 µM.
With `CCCCCOC(=O)C[C@H](N[P@@](=O)(OC[C@H]1O[C@@](C#N)(c2ccc3c(N)ncnn23)[C@H](OC(=O)C(C)C)[C@@H]1OC(=O)C(C)C)Oc1ccccc1)C(=O)OCCCCC` [Compound 38a, (2R,3R,4R,5R)-2-(4-aminopyrrolo[2,1-f][1,2,4]triazin-7-yl)-2-cyano-5-((((R)-(((S)-1,4-dipentyloxy-1,4-dioxobutan-2-yl)amino)(phenoxy)phosphoryl)oxy)methyl)tetrahydrofuran-3,4-diyl bis(2-methylpropionate)], the EC50 fell in the range of 0.05 to 0.5 µM.
For `CC(C)C(=O)O[C@H]1[C@@H](OC(=O)C(C)C)[C@](C#N)(c2ccc3c(N)ncnn23)O[C@@H]1CO[P@@](=O)(N[C@@H](CC(=O)OC1CCC1)C(=O)OC1CCC1)Oc1ccccc1` [Compound 54b, (2R,3R,4R,5R)-2-(4-aminopyrrolo[2,1-f][1,2,4]triazin-7-yl)-2-cyano-5-((((S)-(((S)-1,4-dicyclobutoxy-1,4-dioxobutan-2-yl)amino)(phenoxy)phosphoryl)oxy)methyl)tetrahydrofuran-3,4-diyl bis(2-methylpropionate)], the half-maximal effective concentration (EC50) is < 0.005 µM.
Then `CC(C)OC(=O)OCO[P@](=O)(N[C@@H](C)C(=O)OC1CCC1)OC[C@H]1O[C@@](C#N)(c2ccc3c(N)ncnn23)[C@H](OC(=O)C(C)C)[C@@H]1OC(=O)C(C)C` [Compound 13b, (2R,3R,4R,5R)-2-(4-aminopyrrolo[2,1-f][1,2,4]triazin-7-yl)-2-cyano-5-((((S)-(((S)-1-cyclobutoxy-1-oxopropan-2-yl)amino)(((isopropoxycarbonyl)oxy)methoxy)phosphoryl)oxy)methyl)tetrahydrofuran-3,4-diyl bis(2-methylpropionate)], with < 0.005 µM; and `CC(=O)O[C@H]1[C@@H](OC(C)=O)[C@](C#N)(c2ccc3c(N)ncnn23)O[C@@H]1CO[P@](=O)(OCOC(=O)OC(C)C)Oc1ccc(C(C)(C)C)cc1` [Compound 22a, (2R,3R,4R,5R)-2-(4-aminopyrrolo[2,1-f][1,2,4]triazin-7-yl)-5-((((S)-(4-tert-butylphenoxy)(((isopropoxycarbonyl)oxy)methoxy)phosphoryl)oxy)methyl)-2-cyanotetrahydrofuran-3,4-diyl diacetate], with < 0.005 µM.
Take `CCC(C)(C)COC(=O)[C@H](C)NP(=O)(OCOC(=O)OC(C)C)OC[C@H]1O[C@@](C#N)(c2ccc3c(N)ncnn23)[C@H](OC(=O)C(C)C)[C@@H]1OC(=O)C(C)C` (mixture of isomers) [Compound 14, (2R,3R,4R,5R)-2-(4-aminopyrrolo[2,1-f][1,2,4]triazin-7-yl)-2-cyano-5-((((((S)-1-(2,2-dimethylbutoxy)-1-oxopropan-2-yl)amino)(((isopropoxycarbonyl)oxy)methoxy)phosphoryl)oxy)methyl)tetrahydrofuran-3,4-diyl bis(2-methylpropionate)]: the concentration giving a half-maximal response (EC50) lay in the range of 0.01 to 0.05 µM.
Then `COC(C)(C)COC(=O)[C@H](Cc1ccccc1)N[P@@](=O)(OC[C@H]1O[C@@](C#N)(c2ccc3c(N)ncnn23)[C@H](OC(=O)C(C)C)[C@@H]1OC(=O)C(C)C)Oc1ccccc1` [Compound 64a, (2R,3R,4R,5R)-2-(4-aminopyrrolo[2,1-f][1,2,4]triazin-7-yl)-2-cyano-5-((((R)-(((S)-1-(2-methoxy-2-methylpropoxy)-1-oxo-3-phenylpropan-2-yl)amino)(phenoxy)phosphoryl)oxy)methyl)tetrahydrofuran-3,4-diyl bis(2-methylpropionate)], with < 0.005 µM.
